According to patent US20180008587A1, “THIOHYDANTOIN ANDROGEN RECEPTOR ANTAGONISTS FOR THE TREATMENT OF CANCER” (Jaressen Pharmaceutica NV, priority 2016, published 2018):
Where a chain is given by its changes, count along the chain named. Where two headings read alike, the source gives them in different places.

Columns and labels:
Assay type in all cases: cell-based
[1] = molecular target: T1, F876L mutant Androgen Receptor (AR-F876L) (Homo sapiens, UniProt P10275, F877L); assay: LNCaP-AR-F876L ANT reporter assay (ARE firefly luciferase, antagonist mode); settings: for Emax: read-out: LNCaP-AR-F876L ANT MAX % Inh; for IC50: read-out: LNCaP-AR-F876L ANT pIC50 (converted)
T1 construct: expressed in transfected cells; host or cells: LNCaP (LNCaP F876L)
T1 sequence (P10275 1-920 F877L): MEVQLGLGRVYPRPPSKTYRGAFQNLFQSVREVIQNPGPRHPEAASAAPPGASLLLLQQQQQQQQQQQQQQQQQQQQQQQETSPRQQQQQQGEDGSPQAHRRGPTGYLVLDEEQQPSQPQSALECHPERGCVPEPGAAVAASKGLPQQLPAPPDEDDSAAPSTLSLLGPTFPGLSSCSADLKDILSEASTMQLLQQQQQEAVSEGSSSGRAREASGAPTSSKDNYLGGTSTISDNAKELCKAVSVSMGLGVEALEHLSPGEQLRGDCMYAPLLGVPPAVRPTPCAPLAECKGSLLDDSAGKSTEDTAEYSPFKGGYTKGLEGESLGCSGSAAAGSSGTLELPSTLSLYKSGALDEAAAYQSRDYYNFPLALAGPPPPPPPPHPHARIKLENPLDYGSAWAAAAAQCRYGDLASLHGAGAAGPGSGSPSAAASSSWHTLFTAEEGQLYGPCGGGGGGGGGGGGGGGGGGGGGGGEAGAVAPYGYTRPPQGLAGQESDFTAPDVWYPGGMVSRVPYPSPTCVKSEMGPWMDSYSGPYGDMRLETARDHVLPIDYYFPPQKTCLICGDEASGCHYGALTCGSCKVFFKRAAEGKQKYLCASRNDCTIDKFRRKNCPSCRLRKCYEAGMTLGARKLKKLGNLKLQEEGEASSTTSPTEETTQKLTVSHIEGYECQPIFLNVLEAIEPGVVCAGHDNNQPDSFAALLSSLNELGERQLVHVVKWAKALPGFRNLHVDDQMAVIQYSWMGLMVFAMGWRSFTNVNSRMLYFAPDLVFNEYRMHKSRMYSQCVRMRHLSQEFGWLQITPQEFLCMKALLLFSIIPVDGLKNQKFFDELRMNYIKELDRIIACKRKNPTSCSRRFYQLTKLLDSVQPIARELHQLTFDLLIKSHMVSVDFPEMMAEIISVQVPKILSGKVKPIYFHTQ
Method: (§1) A stable pooled-population cell line was generated using puromycin (Life Technologies) selection at 1:10,000 v/v. The protocol below was used for both cell lines and for testing of the compounds of Formula (I) of the present invention.
(§2) LNCaP cells were grown to about 80% confluence, media removed and cells rinsed in Hank's balanced salt solution prior to separation from the plate with 0.05% Trypsin EDTA. Cells were lifted and trypsin negated in complete CSS (charcoal stripped serum) culture media. […] Agonist challenge was at 400 pM for WT assay and 600 pM for F876L assay. Plates containing cells and compounds herein were incubated for a further 20-24 hours at 37° C., 5% CO2 before addition of 40 μL/well of Steady-Glo Luciferase Assay System Reagent (Promega# E2520). After 1 h, plates were read for luminescence on a BMG Pherastar.
(§3) EC/IC50 calculations were achieved utilizing calculated RLU data and data fitting macros. Data were fit using least-squares methods to the following formula: […]

[2] = molecular target: T2, wild-type Androgen Receptor (AR-wt) (Homo sapiens, UniProt P10275); assay: LNCaP-AR-wt ANT reporter assay (ARE firefly luciferase, antagonist mode); settings: for IC50: antagonist mode, 400 pM R-1881 challenge, −Log10(IC50 [Molar]), read-out: LNCaP-AR-wt ANT pIC50 (converted); for Emax: read-out: LNCaP-AR-wt ANT MAX % Inh
T2 construct: expressed in transfected cells; host or cells: LNCaP (LNCaP AR (cs))
T2 sequence (P10275 1-920): T1 sequence (P10275 1-920 F877L) with L877F
Method: as §1, §2, §3

[3] = molecular target: T1, F876L mutant Androgen Receptor (AR-F876L); assay: LNCaP-AR-F876L AG reporter assay (ARE firefly luciferase, agonist mode); settings: for Emax: read-out: LNCaP-AR-F876L AG MAX % Stim
Method: as §1, §2, §3

[4] = molecular target: T2, wild-type Androgen Receptor (AR-wt); assay: LNCaP-AR-wt AG reporter assay (ARE firefly luciferase, agonist mode); settings: for Emax: read-out: LNCaP-AR-wt AG MAX % Stim
Method: as §1, §2, §3

[5] = maximum % inhibition of R1881 control response over tested concentration range
[6] = agonist mode, −Log10(EC50 [Molar]), read-out: LNCaP-AR-F876L AG pEC50 (converted)
[7] = maximum % stimulation (agonist response) over tested concentration range
[8] = agonist mode, −Log10(EC50 [Molar]), read-out: LNCaP-AR-wt AG pEC50 (converted)

| SMILES | Emax [1, 5] [%] | IC50 [1] [nM] | IC50 [2] [nM] | Emax [2, 5] [%] | EC50 [3, 6] [nM] | Emax [3, 7] [%] | EC50 [4, 8] [nM] | Emax [4, 7] [%] | Emax [3] [%] | Emax [4] [%] | Emax [1] [%] | Emax [2] [%] | EC50 [3] [nM] | EC50 [4] [nM] |
| --- | --- | --- | --- | --- | --- | --- | --- | --- | --- | --- | --- | --- | --- | --- |
| N#Cc1ncc(N2C(=O)C3(CCC3)N(c3ccc(C4CCOCC4)cc3)C2=S)cc1C(F)(F)F [Cpd 89, 5-[5-oxo-8-(4-tetrahydropyran-4-ylphenyl)-7-thioxo-6,8-diazaspiro[3.4]octan-6-yl]-3-(trifluoromethyl)pyridine-2-carbonitrile] | 96.2 | 437 | 631 | 101 | > 15100 | 1.4 | > 15100 | 0.3 | – | – | – | – | – | – |
| CNC(=O)c1ccc(N2C(=S)N(c3cnc(C#N)c(C)c3)C(=O)C23CCC3)cc1C [Cpd 5, 4-[6-(6-cyano-5-methyl-3-pyridyl)-5-oxo-7-thioxo-6,8-diazaspiro[3.4]octan-8-yl]-N,2-dimethyl-benzamide] | 98.3 | 417 | 977 | 101 | > 15100 | -0.1 | > 15100 | 0.7 | – | – | – | – | – | – |
| Cc1ccc(-c2ccc(N3C(=S)N(c4cnc(C#N)c(C)c4)C(=O)C34CCC4)cc2)o1 [Cpd 50, 3-methyl-5-[8-[4-(5-methyl-2-furyl)phenyl]-5-oxo-7-thioxo-6,8-diazaspiro[3.4]octan-6-yl]pyridine-2-carbonitrile] | 98.2 | 282 | 363 | 98 | > 15100 | – | > 15100 | – | 0.2 | 0.7 | – | – | – | – |
| N#Cc1ncc(N2C(=O)C3(CCC3)N(c3ccc(C(=O)NCc4ccccc4)c(F)c3)C2=S)cc1C(F)(F)F [Cpd 36, N-benzyl-4-[6-[6-cyano-5-(trifluoromethyl)-3-pyridyl]-5-oxo-7-thioxo-6,8-diazaspiro[3.4]octan-8-yl]-2-fluoro-benzamide] | – | 851 | 1480 | – | – | – | – | – | 0.3 | 0.9 | 91.3 | 96.1 | > 15100 | > 15100 |
| CN1CCN(CCCNC(=O)c2ccc(N3C(=S)N(c4cnc(C#N)c(C(F)(F)F)c4)C(=O)C34CCC4)cc2F)CC1 [Cpd 108, 4-[6-[6-cyano-5-(trifluoromethyl)-3-pyridyl]-5-oxo-7-thioxo-6,8-diazaspiro[3.4]octan-8-yl]-2-fluoro-N-[3-(4-methylpiperazin-1-yl)propyl]benzamide] | 95.6 | 389 | 813 | 94.5 | > 15100 | 2.5 | > 15100 | 2.3 | – | – | – | – | – | – |
| N#Cc1ncc(N2C(=O)C3(CCC3)N(c3ccc(OCCc4ncccn4)c(F)c3)C2=S)cc1C(F)(F)F [Cpd 56, 5-[8-[3-fluoro-4-(2-pyrimidin-2-ylethoxy)phenyl]-5-oxo-7-thioxo-6,8-diazaspiro[3.4]octan-6-yl]-3-(trifluoromethyl)pyridine-2-carbonitrile] | 97.8 | 832 | 851 | 99.7 | > 15100 | 0.4 | > 15100 | 0.5 | – | – | – | – | – | – |
| Cc1cc(N2C(=O)C3(CCC3)N(c3ccc(-c4ccco4)cc3)C2=S)cnc1C#N [Cpd 86, 5-[8-[4-(2-furyl)phenyl]-5-oxo-7-thioxo-6,8-diazaspiro[3.4]octan-6-yl]-3-methyl-pyridine-2-carbonitrile] | 93.3 | 209 | 257 | 91.7 | > 15100 | 1.3 | > 15100 | 0.6 | – | – | – | – | – | – |
| N#Cc1ncc(N2C(=O)C3(CCC3)N(c3cccnc3)C2=S)cc1C(F)(F)F [Cpd 9, 5-[5-oxo-8-(3-pyridyl)-7-thioxo-6,8-diazaspiro[3.4]octan-6-yl]-3-(trifluoromethyl)pyridine-2-carbonitrile] | – | 692 | 871 | – | – | – | – | – | 0 | -0.2 | 100 | 99 | > 15100 | > 15100 |
| N#Cc1ncc(N2C(=O)C3(CCC3)N(c3ccc(C(=O)NCC4CCCC4)c(F)c3)C2=S)cc1C(F)(F)F [Cpd 21, 4-[6-[6-cyano-5-(trifluoromethyl)-3-pyridyl]-5-oxo-7-thioxo-6,8-diazaspiro[3.4]octan-8-yl]-N-(cyclopentylmethyl)-2-fluoro-benzamide] | 98.6 | 389 | 724 | 100 | > 15100 | 0.1 | > 15100 | -0.2 | – | – | – | – | – | – |
| N#Cc1ncc(N2C(=O)C3(CCC3)N(c3ccc(C(=O)NCCc4cccnc4)c(F)c3)C2=S)cc1C(F)(F)F [Cpd 96, 4-[6-[6-cyano-5-(trifluoromethyl)-3-pyridyl]-5-oxo-7-thioxo-6,8-diazaspiro[3.4]octan-8-yl]-2-fluoro-N-[2-(3-pyridyl)ethyl]benzamide] | 100 | 347 | 407 | 101 | > 15100 | 0.8 | > 15100 | 1.5 | – | – | – | – | – | – |
| CNC(=O)c1ccc(N2C(=S)N(c3cnc(C#N)c(C)c3)C(=O)C23CCC3)cc1OC [Cpd 117, 4-[6-(6-cyano-5-methyl-3-pyridyl)-5-oxo-7-thioxo-6,8-diazaspiro[3.4]octan-8-yl]-2-methoxy-N-methyl-benzamide] | 96.4 | 288 | 1260 | 100 | > 15100 | 3.5 | > 15100 | 0.7 | – | – | – | – | – | – |
